Test results taken from patent publication US20100048660A1, “TREATMENT OF DUCHENNE MUSCULAR DYSTROPHY” (priority 2006, published 2010).

The compounds below were run on Utrophin A promoter linked to a luciferase reporter gene (H2K/mdx/Utro A reporter cell line) (assay: Luciferase reporter assay (murine H2K cells)). Details: Mus musculus; Table 1; murine H2K mdx myoblasts, compound final concentration 10 μM, 48 hrs; read-out: Activity (luciferase reporter assay, relative to control).
Assay type: cell-based
Experimental: 1. Luciferase Reporter Assay (Murine H2K Cells)
The cell line used for the screen is an immortalized mdx mouse H2K cell line that has been stably transfected with a plasmid containing ≈5 kb fragment of the Utrophin A promoter including the first untranslated exon linked to a luciferase reporter gene (see FIG. 1).
Under conditions of low temperature and interferon containing media, the cells remain as myoblasts. These are plated into 96 well plates and cultured in the presence of compound for three days. The level of luciferase is then determined by cell lysis and reading of the light output from the expressed luciferase gene utilising a plate luminometer.
The H2K/mdx/Utro A reporter cell line was passaged twice a week until ≦30% confluent. The cells were grown at 33° C. in the presence of 10% CO2
The H2K/mdx/Utro A reporter cell line cells were plated out into 96 well plates (Falcon 353296, white opaque) at a density of approximately 5000 cells/well in 190 μl normal growth medium. The plates were then incubated at 33° C. in the presence of 10% CO2 for 24 hrs.
Compounds were dosed by adding 10 μl of diluted compound to each well giving a final concentration of 10 μM. The plates were then incubated for a further 48 hrs
Cells were then lysed in situ following the manufacture's protocols (Promega Steady-Glo Luciferase Assay System (E2520). Then counted for 10 seconds using a plate luminometer (Victorl420).

CCN(CC)c1ccc(-n2nc3ccc(NC(=O)c4ccccc4)cc3n2)cc1 [Example 29, N-(2-(4-(diethylamino)phenyl)-2H-benzo[d][1,2,3]triazol-5-yl)benzamide] and CCN(CC)c1ccc(-n2nc3ccc(NC(=O)c4ccncc4)cc3n2)cc1 [Example 21, N-(2-(4-(diethylamino)phenyl)-2H-benzo[d][1,2,3]triazol-5-yl)isonicotinamide] cannot be ordered by activity at 10 µM: under 200% for the first, under 200% for the second.

First: CCCCC(=O)Nc1cc2nn(-c3ccc(Cl)cc3)nc2cc1C [Example 9, N-(2-(4-chlorophenyl)-6-methyl-2H-benzo[d][1,2,3]triazol-5-yl)pentanamide]
Second: CCCC(=O)Nc1cc2nn(-c3ccc(N(CC)CC)cc3)nc2cc1C [Example 15, N-(2-(4-(diethylamino)phenyl)-6-methyl-2H-benzo[d][1,2,3]triazol-5-yl)butyramide]
The activity at 10 µM of the first is higher: 201 to 300% for the first, under 200% for the second.

Compared with CCS(=O)(=O)c1ccc2nn(-c3ccc(Cl)c(Cl)c3)nc2c1 [Example 51, 2-(3′,4′-dichlorophenyl)-5-(ethylsulfonyl)-benzotriazole], CCS(=O)(=O)c1ccc2nn(-c3ccc(Cl)cc3)nc2c1 [Example 52, 2-(4′-chlorophenyl)-5-(ethylsulfonyl)-benzotriazole] is higher in activity at 10 µM: 301 to 400% for the first, over 401% for the second.

Going from Cc1cc2nn(-c3ccc(Cl)cc3)nc2cc1N [Example 43, 2-(4-chlorophenyl)-6-methyl-2H-benzo[d][1,2,3]triazol-5-amine] to Nc1ccc2nn(-c3ccc(Cl)cc3)nc2c1 [Example 38, 2-(4-chlorophenyl)-2H-benzo[d][1,2,3]triazol-5-amine], the activity at 10 µM falls from over 401% to under 200%.

CCCCC(=O)Nc1ccc2nn(-c3ccc(N(CC)CC)cc3)nc2c1 [Example 25, N-(2-(4-(diethylamino)phenyl)-2H-benzo[d][1,2,3]triazol-5-yl)pentanamide] and CCCC(=O)Nc1ccc2nn(-c3ccc(N(CC)CC)cc3)nc2c1 [Example 24, N-(2-(4-(diethylamino)phenyl)-2H-benzo[d][1,2,3]triazol-5-yl)butyramide] cannot be ordered by activity at 10 µM: under 200% for the first, under 200% for the second.

CC(C)C(=O)Nc1ccc2nn(-c3ccc(Cl)c(Cl)c3)nc2c1 [Example 53, N-(2-(3,4-Dichlorophenyl)-2H-benzo[d][1,2,3]triazol-5-yl)isobutyramide] and CC(C)C(=O)Nc1ccc2nn(-c3ccc(Cl)cc3)nc2c1 [Example 37, N-(2-(4-chlorophenyl)-2H-benzo[d][1,2,3]triazol-5-yl)isobutyramide] cannot be ordered by activity at 10 µM: over 401% for the first, over 401% for the second.

Compared with CCN(CC)c1ccc(-n2nc3cc(C)c(NC(=O)c4ccco4)cc3n2)cc1 [Example 18, N-(2-(4-(diethylamino)phenyl)-6-methyl-2H-benzo[d][1,2,3]triazol-5-yl)furan-2-carboxamide], CCN(CC)c1ccc(-n2nc3cc(C)c(NC(=O)c4cccnc4)cc3n2)cc1 [Example 12, N-(2-(4-(diethylamino)phenyl)-6-methyl-2H-benzo[d][1,2,3]triazol-5-yl)nicotinamide] is higher in activity at 10 µM: under 200% for the first, 301 to 400% for the second.

Compared with CCN(CC)c1ccc(-n2nc3ccc(NC(=O)C(C)C)cc3n2)cc1 [Example 26, N-(2-(4-(diethylamino)phenyl)-2H-benzo[d][1,2,3]triazol-5-yl)isobutyramide], CCN(CC)c1ccc(-n2nc3ccc(NC(C)=O)cc3n2)cc1 [Example 22, N-(2-(4-(diethylamino)phenyl)-2H-benzo[d][1,2,3]triazol-5-yl)acetamide] is higher in activity at 10 µM: under 200% for the first, 201 to 300% for the second.

CN(C)c1ccc(-n2nc3ccc(N)cc3n2)cc1 [Example 41, 2-(4-(dimethylamino)phenyl)-2H-benzo[d][1,2,3]triazol-5-amine] and CCN(CC)c1ccc(-n2nc3ccc(N)cc3n2)cc1 [Example 19, 2-(4-(diethylamino)phenyl)-2H-benzo[d][1,2,3]triazol-5-amine] fall in the same range of activity at 10 µM: 301 to 400% for the first, 301 to 400% for the second.

CC(C)S(=O)(=O)c1ccc2cn(-c3ccc(Cl)cc3)nc2c1 [Example 56, 2-(4′-Chlorophenyl)-6-(isopropylsulfonyl)-2H-indazole] and CC(C)C(=O)Nc1ccc2cn(-c3ccc(Cl)cc3)nc2c1 [Example 46, N-(2-(4-chlorophenyl)-2H-indazol-6-yl)isobutyramide] cannot be ordered by activity at 10 µM: over 401% for the first, over 401% for the second.

Compared with CN1CCN(c2ccc(-n3nc4ccc(N)cc4n3)cc2)CC1 [Example 42, 2-(4-(4-methylpiperazin-1-yl)phenyl)-2H-benzo[d][1,2,3]triazol-5-amine], Nc1ccc2nn(-c3ccc(N4CCCCC4)cc3)nc2c1 [Example 40, 2-(4-(piperidin-1-yl)phenyl)-2H-benzo[d][1,2,3]triazol-5-amine] is higher in activity at 10 µM: under 200% for the first, 201 to 300% for the second.

CCC(=O)Nc1ccc2nn(-c3ccc(N(CC)CC)cc3)nc2c1 [Example 23, N-(2-(4-(diethylamino)phenyl)-2H-benzo[d][1,2,3]triazol-5-yl)propionamide] and CCC(=O)Nc1cc2nn(-c3ccc(N(CC)CC)cc3)nc2cc1C [Example 14, N-(2-(4-(diethylamino)phenyl)-6-methyl-2H-benzo[d][1,2,3]triazol-5-yl)propionamide] cannot be ordered by activity at 10 µM: under 200% for the first, under 200% for the second.

First: Cc1cc2nn(-c3ccc(Cl)cc3)nc2cc1NC(=O)c1ccco1 [Example 11, N-(2-(4-chlorophenyl)-6-methyl-2H-benzo[d][1,2,3]triazol-5-yl)furan-2-carboxamide]
Second: Cc1cc2nn(-c3ccc(Cl)cc3)nc2cc1NC(=O)c1ccccc1 [Example 3, N-(2-(4-chlorophenyl)-6-methyl-2H-benzo[d][1,2,3]triazol-5-yl)benzamide]
The activity at 10 µM of the first is higher: 201 to 300% for the first, under 200% for the second.

Clc1ccc(-n2cc3ccccc3n2)cc1 [Example 48, 2-(4-chlorophenyl)-2H-indazole] and CS(=O)(=O)c1ccc2nn(-c3ccc4ccccc4c3)nc2c1 [Example 55, 5-(Methylsulfonyl)-2-(naphthalen-2-yl)-2H-benzo[d][1,2,3]triazole] cannot be ordered by activity at 10 µM: over 401% for the first, over 401% for the second.

Compared with CCN(CC)c1ccc(-n2nc3ccc(NC(=O)c4cccnc4)cc3n2)cc1 [Example 20, N-(2-(4-(diethylamino)phenyl)-2H-benzo[d][1,2,3]triazol-5-yl)nicotinamide], CCN(CC)c1ccc(-n2nc3ccc(NC(=O)c4cccs4)cc3n2)cc1 [Example 28, N-(2-(4-(diethylamino)phenyl)-2H-benzo[d][1,2,3]triazol-5-yl)thiophene-2-carboxamide] is lower in activity at 10 µM: 201 to 300% for the first, under 200% for the second.

COc1ccc(C(=O)Nc2cc3nn(-c4ccc(Cl)cc4)nc3cc2C)cc1 [Example 4, N-(2-(4-chlorophenyl)-6-methyl-2H-benzo[d][1,2,3]triazol-5-yl)-4-methoxybenzamide] and Cc1cc2nn(-c3ccc(Cl)cc3)nc2cc1NC(=O)c1ccncc1 [Example 2, N-(2-(4-chlorophenyl)-6-methyl-2H-benzo[d][1,2,3]triazol-5-yl)isonicotinamide] fall in the same range of activity at 10 µM: 201 to 300% for the first, 201 to 300% for the second.

CCN(CC)c1ccc(-n2nc3ccc(NC(=O)c4ccc(N(C)C)cc4)cc3n2)cc1 [Example 33, N-(2-(4-(diethylamino)phenyl)-2H-benzo[d][1,2,3]triazol-5-yl)-4-(dimethylamino)benzamide] and CCN(CC)c1ccc(-n2nc3ccc(NC(=O)c4ccccc4OC)cc3n2)cc1 [Example 31, N-(2-(4-(diethylamino)phenyl)-2H-benzo[d][1,2,3]triazol-5-yl)-2-methoxybenzamide] cannot be ordered by activity at 10 µM: under 200% for the first, under 200% for the second.

CS(=O)(=O)c1ccc2nn(-c3ccc4ccccc4c3)[n+]([O-])c2c1 [Example 54, 6-(Methylsulfonyl)-2-(naphthalen-2-yl)-2H-benzo[d][1,2,3]triazole 1-oxide] and Cc1cc2nn(-c3ccc(N4CCOCC4)cc3)nc2cc1N [Example 34, 6-methyl-2-(4-morpholinophenyl)-2H-benzo[d][1,2,3]triazol-5-amine] fall in the same range of activity at 10 µM: 201 to 300% for the first, 201 to 300% for the second.

Same assay, conditions: Mus musculus; Table 2; murine H2K mdx myoblasts, compound final concentration 10 μM, 48 hrs; read-out: Activity (luciferase reporter assay, relative to control)

First: CC(=O)Nc1cc2nn(-c3ccccc3)nc2cc1C [Example 67, N-(6-methyl-2-phenyl-2H-benzo[d][1,2,3]triazol-5-yl)acetamide]
Second: COc1ccc(-n2nc3cc(C)c(NC(C)=O)cc3n2)cc1 [Example 66, N-(2-(4-methoxyphenyl)-6-methyl-2H-benzo[d][1,2,3]triazol-5-yl)acetamide]
The activity at 10 µM of the first is higher: 201 to 300% for the first, under 200% for the second.

First: Cc1ccc(-n2nc3ccc(N)cc3n2)cc1C [Example 63, 2-(3,4-dimethylphenyl)-2H-benzo[d][1,2,3]triazol-5-amine]
Second: Cc1ccc(-n2nc3cc(C)c(N)cc3n2)cc1 [Example 65, 6-methyl-2-p-tolyl-2H-benzo[d][1,2,3]triazol-5-amine]
The activity at 10 µM of the first is lower: under 200% for the first, 201 to 300% for the second.

CCc1ccc(-n2nc3ccc(N)cc3n2)cc1 [Example 68, 2-(4-ethylphenyl)-2H-benzo[d][1,2,3]triazol-5-amine] and CC(=O)Nc1ccc2nn(-c3ccc(F)cc3)nc2c1 [Example 69, N-(2-(4-fluorophenyl)-2H-benzo[d][1,2,3]triazol-5-yl)acetamide] fall in the same range of activity at 10 µM: 201 to 300% for the first, 201 to 300% for the second.

For CCOc1ccc(-n2nc3cc(C)c(N)cc3n2)cc1 [Example 64, 2-(4-ethoxyphenyl)-6-methyl-2H-benzo[d][1,2,3]triazol-5-amine], the activity at 10 µM was 201 to 300%.
